The source of these data is PubChem BioAssay (NCI).

The structures appear in SMILES notation.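 Results reflect a 48-hour exposure of cells in 96-well plates to compound at five concentrations. The concentration for 50% growth inhibition is given as GI50. The concentration for full growth arrest is given as TGI.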 Where only a bound is given, the exact number is not on record here.

What all share (test): NCI anticancer screen, dose series, 48 h
For assay [1], the system named is CCRF-CEM leukemia.
Assay [2] has as its system A549 NSCLC.
The subject of assay [3] is K-562 leukemia.
Assay [4] has as its system SK-MEL-2 melanoma.
Assay [5] deals with SNB-19 CNS.
In assay [6] the test system is KM12 colon.
The subject of assay [7] is HCT-116 colon.
Assay [8] has as its system HT29 colon.
The test system of assay [9] is COLO 205 colon.
Assay [10] deals with LOX IMVI melanoma.

Take `CCOc1ccc(C(CN2CCOCC2)C(C)=O)cc1OC` (stereo not drawn): the TGI is 26.1 µM in [1]; 51.7 µM in [2]; 13.9 µM in assay [3]; 28.4 µM in assay [4]; 32 µM in assay [5]; 29 µM in assay [6]. Moreover, the TGI in [7] was determined as 43.5 µM; in assay [8] it was 34.8 µM; in [9] it was 19.6 µM; in assay [10] it was 31.1 µM.

In the case of `CC(=O)Oc1ccc(/C=N/NC(N)=S)nc1`, the GI50 in assay [1] is 2.58 µM; in assay [2], 29.5 µM; in assay [3], 6 µM; in assay [4], 77 µM; in [5], 8.77 µM; in assay [6], 4.82 µM. Moreover, the GI50 was 4.48 µM in assay [7], 19 µM in assay [8], 31 µM in [9] and 3.54 µM in assay [10]. Further, the TGI was 9.43 µM in assay [1]; more than 100 µM in assay [2]; more than 100 µM in [3]; more than 100 µM in [4]; more than 100 µM in [5]; more than 100 µM in assay [6]. Further, the TGI in assay [7], in assay [8], in assay [9] and in [10] was more than 100 µM throughout.

As for `Cc1nc(-n2nc(-c3ccccc3)cc2-c2ccccc2)sc1C(/C=C/c1ccc([N+](=O)[O-])cc1)=N/NC(=O)c1ccncc1`, the TGI in assay [1] is more than 100 µM; in [2] it was more than 100 µM; in assay [3] it was more than 100 µM; in assay [4], 66.1 µM; in [5], more than 100 µM; in [6], 22.4 µM. Also, the TGI is 21.8 µM in assay [7], more than 100 µM in assay [8], 58.4 µM in assay [9] and 48.8 µM in assay [10].

Consider `CC1CCC2N(C1)CC1C3(O)CC45OC6(O)C(O)CCC4(C)C6CCC5C3(O)CC(O)C1(O)C2(C)O` (stereo not drawn), for which the TGI in [1], in [2], in assay [3], in assay [4], in assay [5] and in assay [6] was more than 100 µM throughout. Also, the TGI in [7], in assay [8], in assay [9] and in assay [10] was more than 100 µM throughout.

`O=c1c2ccccc2oc2ccc(OCCCCCCN3CCCCCC3)cc12`: the GI50 in assay [1] was 3.17 µM; in assay [2], 3.51 µM; in assay [3] it was 1.96 µM; in assay [4], 3.05 µM; in [5], 4.12 µM; in assay [6] it was 3.2 µM. In addition, the GI50 was 2.13 µM in assay [7], 1.91 µM in assay [8], 1.93 µM in assay [9] and 1.85 µM in [10]. The TGI in assay [1] amounted to 12 µM; in assay [2], 11.5 µM; in [3], 4.6 µM; in [4] it was 9.75 µM; in [5], 14.4 µM; in [6], 11.5 µM. Besides, the TGI in [7] is 5.16 µM; in [8], 6.57 µM; in assay [9], 4.05 µM; in assay [10] it was 3.54 µM.

On to `CCOc1cc(-c2ccc[nH]2)[nH]c1/C=C1\N=C(C)C(C(=O)OC)=C1C`, for which the TGI in [1] stood at 1.99 µM; in assay [2], 0.58 µM; in [4], 0.0893 µM; in assay [5], 2.91 µM; in assay [6], 1.35 µM; in assay [7], 1.08 µM. Also, the TGI in assay [8] came out at 1.06 µM; in assay [9] it was 0.304 µM; in assay [10] it was 0.0381 µM. The GI50 in [2] was 0.0531 µM; in assay [4] it was 0.0256 µM; in [5] it was 0.239 µM; in assay [6], 0.0251 µM; in assay [7], 0.0188 µM; in assay [8], less than 0.0123 µM. Besides, the GI50 in assay [9] is 0.031 µM; in assay [10] it was 0.0102 µM.

Regarding `C[N+](C)(C)CC1CCCC(C[N+](C)(C)C)C1O` (stereo not drawn), the TGI in assay [1], in [2], in assay [3], in assay [4], in [6] and in assay [7] was more than 100 µM in each case. Further, the TGI in assay [8], in assay [9] and in assay [10] was more than 100 µM in each case.

Turning to `COC(=O)CC(C(C(C)=O)C(=O)OCc1ccccc1)N1C(=O)OCC1c1ccccc1` (stereo not drawn), the TGI in assay [1], in [2], in assay [3], in assay [4], in assay [5] and in assay [7] was more than 100 µM in each case. Besides, the TGI in assay [8], in [9] and in assay [10] was more than 100 µM throughout.

In the case of `CO[C@@]12[C@@H]3NC3CN1C1=C(C(=O)C(N)=C(C)C1=O)[C@@H]2COC(N)=O` (stereo partly drawn), the GI50 in assay [1] was 0.296 µM; in assay [3] it was 0.965 µM; in assay [4], 1.91 µM; in assay [6] it was 1.22 µM; in [7], 0.53 µM; in assay [9], 0.55 µM. Further, the TGI in [1] is more than 63.5 µM; in assay [2], 3.62 µM; in [3], more than 100 µM; in [4], 4.41 µM; in assay [6], 7.22 µM; in [7], 3.26 µM. Besides, the TGI in assay [8] worked out at 5.24 µM; in assay [9] it was 2.3 µM; in assay [10] it was 2.06 µM.

With `CCOP(=O)(Nc1ccc2oc(=O)c3ccccc3c2c1)OCC`, the TGI in assay [1], in assay [2], in [3], in assay [4], in assay [5] and in assay [7] was more than 100 µM in each case. Moreover, the TGI in [8], in assay [9] and in assay [10] was more than 100 µM throughout.

For the compound `COc1ccc(S(=O)(=O)N(C)CC(=O)O)cc1`, the TGI in [1], in [2], in assay [3], in assay [4], in [5] and in assay [6] was more than 100 µM each time. Moreover, the TGI in assay [8], in [9] and in assay [10] was more than 100 µM each time.
